Test results taken from patent US20070249519A1, “METHODS FOR THE UPREGULATION OF GLUT4 VIA MODULATION OF PPAR DELTA IN ADIPOSE TISSUE AND FOR THE TREATMENT OF DISEASE” (KALYPSYS, INC., priority 2006, published 2007).

Tests used:
[1] = tested on: GLUT4 mRNA expression; assay: GLUT4 mRNA expression in adipose tissue, DIO model in mice; type: in vivo, C57B1/6j mice; details: 3 or 9 mg/kg
Description: (§1) Metabolic syndrome in humans is characterized by abdominal obesity, high triglycerides, impaired fasting glucose and hyperinsulinemia. In the DIO model, mice are fed high fat diet (HFD, Research diet D12492, Research Diet, N.J.) diet (58% lard) for the entire period of the study. Compared to normal chow (NC, Harlan-Tekland #8604, WI) fed animals the HF fed mice develop several features of metabolic syndrome such as hypertriglyceridemia, hyperinsulinemia and mild hyperglycemia, as early as two weeks, on this diet. […] Additionally, GLUT4 expression is down regulated in HF-fed C57B1/6j mice after 4 weeks. […]
(§2) C57B1/6j mice (n=5-6 for each group) were fed ad libitum with either the HFD (58% fat) or NC (5%) diet for 4 weeks prior to start of experiments, and throughout the course of each experiment (Days −27 to Day 60). […] Plasma Insulin, and glucose levels under fasting and postprandial (PP) conditions were measured using the Ultrasensitive Mouse Insulin ELISA kit (Mercodia) and glucometer (Accu-Check Compact, Roche) respectively. […] Tissues were collected at sacrifice at 3-4 hours post dosing with compound 1 or compound 2 in a fed state and GLUT4 mRNA expression was assessed using GLUT4 specific probes and branched DNA (bDNA) analyses (Epicenter Biotechnologies).

[2] = biological target: T1, PPAR delta (Homo sapiens, UniProt Q03181); details: GAL4 chimera, CV-1 cells, luciferase; cited from earlier work
T1 construct: expressed in transfected cells; host or cells: CV-1 cells
T1 sequence (Q03181 211-439 limits assumed): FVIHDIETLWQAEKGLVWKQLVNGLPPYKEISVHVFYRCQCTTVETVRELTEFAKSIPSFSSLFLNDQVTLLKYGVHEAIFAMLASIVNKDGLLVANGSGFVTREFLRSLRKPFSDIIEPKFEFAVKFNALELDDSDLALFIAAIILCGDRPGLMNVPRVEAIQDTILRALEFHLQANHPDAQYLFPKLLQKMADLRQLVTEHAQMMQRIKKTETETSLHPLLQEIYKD

[3] = biological target: T2, PPAR alpha (Homo sapiens, UniProt Q07869); details: GAL4 chimera, CV-1 cells, luciferase; cited from earlier work
T2 construct: expressed in transfected cells; host or cells: CV-1 cells
T2 sequence (Q07869 239-466 limits assumed): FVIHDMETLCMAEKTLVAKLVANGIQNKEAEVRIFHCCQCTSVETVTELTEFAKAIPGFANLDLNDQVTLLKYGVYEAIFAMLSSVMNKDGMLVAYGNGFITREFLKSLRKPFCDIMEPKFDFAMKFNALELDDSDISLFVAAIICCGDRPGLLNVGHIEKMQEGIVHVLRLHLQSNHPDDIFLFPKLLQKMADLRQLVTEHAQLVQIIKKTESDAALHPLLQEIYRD

[4] = Glucose tolerance testing (GTT), DIO model in mice; type: in vivo, C57B1/6j mice
Description: Metabolic syndrome in humans is characterized by abdominal obesity, high triglycerides, impaired fasting glucose and hyperinsulinemia. In the DIO model, mice are fed high fat diet (HFD, Research diet D12492, Research Diet, N.J.) diet (58% lard) for the entire period of the study. Compared to normal chow (NC, Harlan-Tekland #8604, WI) fed animals the HF fed mice develop several features of metabolic syndrome such as hypertriglyceridemia, hyperinsulinemia and mild hyperglycemia, as early as two weeks, on this diet. […] Additionally, GLUT4 expression is down regulated in HF-fed C57B1/6j mice after 4 weeks. This model was used to evaluate the pharmacological effects of a Compound 1 and Compound 2 in mitigating several features of HFD induced metabolic syndrome in rodents.
(§3) C57B1/6j mice (n=5-6 for each group) were fed ad libitum with either the HFD (58% fat) or NC (5%) diet for 4 weeks prior to start of experiments, and throughout the course of each experiment (Days −27 to Day 60). Starting on Day 1, mice were dosed BID with either 3 mg/kg Compound 1+vehicle, 9 mg/kg Compound 1+vehicle, 3 mg/kg Compound 2+vehicle, or vehicle alone, for the entire period of the study (day 0-60). Plasma Insulin, and glucose levels under fasting and postprandial (PP) conditions were measured using the Ultrasensitive Mouse Insulin ELISA kit (Mercodia) and glucometer (Accu-Check Compact, Roche) respectively. Appropriate dilutions were made in each case to ensure that the samples remained in the linear range of the standard curve. Animals were sacrificed and levels of Compound 1 and Compound 2 in adipose and muscle tissue were assayed using LC/Mass Spec. Tissues were collected at sacrifice at 3-4 hours post dosing with compound 1 or compound 2 in a fed state and GLUT4 mRNA expression was assessed using GLUT4 specific probes and branched DNA (bDNA) analyses (Epicenter Biotechnologies).

[5] = Compound level in adipose tissue by LC/Mass Spec, DIO model in mice; type: in vivo, C57B1/6j mice; details: 8 weeks of treatment, 3 or 9 mg/kg/d Compound 1 vs 3 mg/kg/day Compound 2
Method: as §3

[6] = biological target: T3, PPAR gamma (Homo sapiens, UniProt P37231); details: GAL4 chimera, CV-1 cells, luciferase; cited from earlier work
T3 construct: expressed in transfected cells; host or cells: CV-1 cells
T3 sequence (P37231 238-503 limits assumed): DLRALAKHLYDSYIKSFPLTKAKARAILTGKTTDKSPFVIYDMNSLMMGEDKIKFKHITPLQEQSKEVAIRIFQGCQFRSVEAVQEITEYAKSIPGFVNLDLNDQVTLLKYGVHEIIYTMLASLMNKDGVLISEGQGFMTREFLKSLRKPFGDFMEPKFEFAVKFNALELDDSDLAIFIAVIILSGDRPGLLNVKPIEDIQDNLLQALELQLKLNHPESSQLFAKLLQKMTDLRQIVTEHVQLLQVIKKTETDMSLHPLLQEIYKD

[7] = Insulin tolerance testing (ITT), DIO model in mice; type: in vivo, C57B1/6j mice; details: NC and HFD cohorts, 3 and 9 mg/kg
Description: as §1, §2

[8] = tested on: GLUT4 mRNA expression; assay: GLUT4 mRNA expression in muscle tissue, DIO model in mice; type: in vivo, C57B1/6j mice; details: 14 weeks of treatment, 3 or 9 mg/kg, NC or HFD, vs vehicle
Description: as §1, §2

[9] = tested on: GLUT4 translocation; details: ZDF ob/ob and DIO C57BL/6 mice; cited from earlier work
[10] = in vivo; cited from earlier work
[11] = tested on: GLUT4; details: in vivo; cited from earlier work

| Structure (SMILES) | EC50 [2] | EC50 [3] | EC50 [6] | other results |
| --- | --- | --- | --- | --- |
| C[C@@H]1CN(c2ccc(OC(F)(F)F)cc2)C[C@H](C)N1S(=O)(=O)c1cccc2c1CC(C(=O)O)C2 (mixture of isomers) [Compound 1, 4-[cis-2,6-Dimethyl-4-(4-trifluoromethoxy-phenyl)-piperazine-1-sulfonyl]-indan-2-carboxylic acid] | < 5 µM | > 100 µM | > 100 µM | GLUT4 mRNA expression in murine adipose tissue (FIG. 3) ([1]; 8 weeks of treatment, HFD cohort): upregulated; GLUT4 mRNA expression in murine adipose tissue (FIG. 2) ([1]; 14 days of treatment, HFD fed mice): normalized expression of GLUT-4; plasma glucose during GTT, effect by dose (FIG. 6) ([4]; HFD cohort, 3 and 9 mg/kg): an effect was seen at both doses; plasma glucose during GTT (FIGS. 5 and 6) ([4]; NC and HFD cohorts): increased glucose disposal; plasma insulin during GTT (FIGS. 7 and 8) ([4]; NC and HFD cohorts): decreased insulin levels; uptake (concentration) in murine adipose tissue (FIG. 4) [5]: preferentially uptaken over Compound 2; plasma glucose during ITT (FIGS. 9 and 10) [7]: attenuated plasma glucose output; GLUT4 mRNA expression in murine muscle tissue (FIG. 1) [8]: no significant increase |
| C[C@@H]1CN(Cc2ccc(OC(F)(F)F)cc2)C[C@H](C)N1S(=O)(=O)c1cccc2c1CC(C(=O)O)C2 (mixture of isomers) [Compound 3, 4-[cis-2,6-Dimethyl-4-(4-trifluoromethoxy-benzyl)-piperazine-1-sulfonyl]-indan-2-carboxylic acid] | < 5 µM | 5 to 100 µM | 5 to 100 µM |  |
| CC(=O)NCCOC(=O)[C@H](Oc1cccc(C(F)(F)F)c1)c1ccc(Cl)cc1 [MBX-102] |  |  |  | insulin sensitivity and GLUT4 translocation in adipose and muscular tissue [9]: enhanced insulin sensitivity and GLUT4 translocation |
| C[C@@H]1CN(c2ccc(OC(F)(F)F)cc2)C[C@H](C)N1S(=O)(=O)c1cccc2c1C[C@@H](C(=O)O)C2 [Compound 1A, (S)-4-[cis-2,6-Dimethyl-4-(4-trifluoromethoxy-phenyl)-piperazine-1-sulfonyl]-indan-2-carboxylic acid] | < 5 µM | > 100 µM | > 100 µM |  |
| C[C@@H]1CN(Cc2ccc(OC(F)(F)F)cc2)C[C@H](C)N1S(=O)(=O)c1cccc2c1C[C@@H](C(=O)O)C2 [Compound 3A, (S)-4-[cis-2,6-Dimethyl-4-(4-trifluoromethoxy-benzyl)-piperazine-1-sulfonyl]-indan-2-carboxylic acid] | < 5 µM | > 100 µM | 5 to 100 µM |  |
| Cc1cc(SCc2sc(-c3ccc(C(F)(F)F)cc3)nc2C)ccc1OCC(=O)O [Compound 2, {2-Methyl-4-[4-methyl-2-(4-trifluoromethyl-phenyl)-thiazol-5-ylmethylsulfanyl]-phenoxy}-acetic acid] |  |  |  | tissue partitioning [10]: preferentially partitions into muscular tissue; expression of GLUT4 in rat skeletal muscle [11]: increased expression of GLUT4 |
